Source: PubChem BioAssay (NCI)
“And” between values parts separate entries of the source, which are not always exact repeats. Identical values can stand only once.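 Assay format: 96-well plates, 48-hour exposure. GI50 marks 50% less growth. TGI: total growth inhibition.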

What was measured:
Assay in all cases: NCI tumour cell line growth inhibition, 48 h
SNB-19 CNS = tested on: SNB-19 CNS
OVCAR-8 ovarian = tested on: OVCAR-8 ovarian
CCRF-CEM leukemia = tested on: CCRF-CEM leukemia
HL-60(TB) leukemia = tested on: HL-60(TB) leukemia
DMS 114 small cell lung = tested on: DMS 114 small cell lung
NCI-H460 lung = tested on: NCI-H460 lung
LXFL 529 NSCLC = tested on: LXFL 529 NSCLC
RXF 393 renal = tested on: RXF 393 renal
BT-549 breast = tested on: BT-549 breast
NCI-H226 lung = tested on: NCI-H226 lung

| SMILES | TGI (SNB-19 CNS) | TGI (OVCAR-8 ovarian) | TGI (CCRF-CEM leukemia) | TGI (HL-60(TB) leukemia) | TGI (DMS 114 small cell lung) | TGI (NCI-H460 lung) | TGI (LXFL 529 NSCLC) | TGI (RXF 393 renal) | GI50 (SNB-19 CNS) | GI50 (OVCAR-8 ovarian) | GI50 (CCRF-CEM leukemia) | GI50 (HL-60(TB) leukemia) | GI50 (NCI-H460 lung) | GI50 (BT-549 breast) | TGI (BT-549 breast) | GI50 (RXF 393 renal) | GI50 (NCI-H226 lung) | TGI (NCI-H226 lung) |
| --- | --- | --- | --- | --- | --- | --- | --- | --- | --- | --- | --- | --- | --- | --- | --- | --- | --- | --- |
| COc1ccc(OC(C(=O)O)c2ccccc2)c2c1CCCC2=O (stereo not drawn) | > 100 µM | > 100 µM | > 100 µM | > 100 µM | > 100 µM | > 100 µM | > 100 µM |  |  |  |  |  |  |  |  |  |  |  |
| O=C(NC1C2CC3CC(C2)CC1C3)c1cc(/C=C/c2ccccc2)[nH]c(=S)n1 (stereo not drawn) | > 100 µM | > 100 µM | > 100 µM | > 100 µM | > 100 µM | > 100 µM | > 100 µM | > 100 µM |  |  |  |  |  |  |  |  |  |  |
| O=S(O)CCCSSc1ccccc1 | > 100 µM | > 100 µM | 93.3 µM |  | 67.6 µM | > 100 µM | > 100 µM | > 100 µM |  |  |  |  |  |  |  |  |  |  |
| O=C1CC(O)(c2ccccc2)C(c2ccccc2)=C1c1ccccc1 (stereo not drawn) |  | > 100 µM | > 100 µM | 56.3 µM | 89.8 µM | > 100 µM | > 100 µM | > 100 µM |  |  |  |  |  |  |  |  |  |  |
| COc1cc(-c2nn(-c3cccc(NC(=O)c4ccc(N5CCOCC5)c(C(F)(F)F)c4)c3)cc2-c2ccncc2)ccc1Cl | > 100 µM | > 100 µM | > 100 µM |  |  | > 20.4 µM |  | 0.809 µM | 0.57 µM | 0.468 µM | 0.236 µM | 0.233 µM | 0.299 µM | 0.932 µM | > 42 µM | 0.207 µM | 1.07 µM | 99.2 µM |
| N#CC1=C(N)NC(=S)NC12Nc1ccccc1N2 | > 100 µM | > 100 µM | > 100 µM | > 100 µM |  | > 100 µM |  | > 100 µM | 90.1 µM | 38.6 µM | 18.2 µM | 20.8 µM | 28.7 µM | 33.1 µM | 91.2 µM | > 100 µM | 20.6 µM | 88.2 µM |
| CCCCCCc1nc2nc(Cl)c(Cl)nc2[nH]1 | > 100 µM | > 100 µM | > 100 µM | > 100 µM |  | > 100 µM |  | > 100 µM | 6.2 µM | > 100 µM | 5.8 µM | 6.84 µM | 5.59 µM | 22.5 µM | > 100 µM | 7.55 µM | 7.21 µM | > 100 µM |
| C/C(=C\COc1c2c(cc3c1CCO3)OC1(C=C2)OC(CC/C(C)=C/COc2c3ccoc3cc3oc(=O)ccc23)C(C)(C)O1)CCC(O)C(C)(C)O (stereo not drawn) | > 100 µM | > 100 µM | > 100 µM | 20.9 µM |  | > 100 µM |  | > 100 µM | 55.2 µM | 8.56 µM | 8.78 µM | 3.61 µM | 9.65 µM | 16.7 µM | > 100 µM | 79.8 µM | 58.7 µM | > 100 µM |
| COc1cc(O)c2c(c1)C(=O)c1cc3c(c(O)c1C2=O)C(OC1OC(C)C(O)C(O)C1OC)C(OC)C(C)(O)C3=O (stereo not drawn) | 8.9 µM and 15.5 µM | 5.27 µM and 1.62 µM | > 100 µM and 74.1 µM | 17.6 µM and 24.3 µM | 5.24 µM | 4.54 µM and 4.77 µM |  | 6.72 µM and 4.38 µM | 2.42 µM | 1.42 µM and 0.373 µM | 3.07 µM and 13.4 µM | 3.44 µM and 6.26 µM | 1.27 µM | 2.07 µM | 5.18 µM | 1.01 µM | 2.22 µM | 4.82 µM and 9.03 µM |
| O=c1c2ccccc2c2ccccc2c(=O)n1Cc1ccc2c(c1)OCO2 | > 100 µM | > 100 µM | 93.2 µM | 52 µM |  | > 100 µM |  | > 84.2 µM |  |  |  |  |  |  | 88.7 µM |  |  | > 100 µM |
| COC(=O)[C@H](Cc1ccc(O)cc1)NC(=O)[C@@H](OC)[C@@H]1Cc2cc3cc(OC4CC(OC5CC(O)C(O)C(C)O5)C(O)C(C)O4)c(C)c(O)c3c(O)c2C(=O)[C@H]1OC1CC(OC2CC(OC3CC(C)(O)C(O)C(C)O3)C(O)C(C)O2)C(O)C(C)O1 (stereo partly drawn) | > 25 µM | > 25 µM | > 25 µM | > 25 µM |  | > 25 µM |  | 0.292 µM | 0.0713 µM | 0.166 µM | 0.111 µM | 0.614 µM | 0.0604 µM | 0.0782 µM | 2.09 µM | 0.0544 µM | 0.0759 µM | 0.582 µM |
| COc1cccc2c1c(C1=C(c3cn(C)c4ccccc34)C(=O)NC1=O)cn2C | > 25 µM | > 25 µM | > 25 µM | > 25 µM |  | > 25 µM |  | > 25 µM | > 25 µM | > 25 µM | > 25 µM | > 25 µM | > 25 µM | > 25 µM | > 25 µM | > 25 µM | > 25 µM | > 25 µM |
| O=C(/C(=C/c1ccc([N+](=O)[O-])cc1)SCc1ccc(F)cc1)c1ccc(Cl)cc1 | 11.6 µM | 96.6 µM | > 100 µM | 40.4 µM |  | > 100 µM |  | 36.6 µM | 3.28 µM | 6.6 µM | 3.17 µM | 4.33 µM | 19 µM | 3.38 µM | 16.4 µM | 15.5 µM | 13.7 µM | 44.5 µM |
| Cc1ncsc1-c1ccc(CNC(=O)[C@@H]2C[C@@H](O)CN2C(=O)[C@@H](NC(=O)C2(C#N)CC2)C(C)(C)C)cc1 | > 100 µM | > 100 µM | > 100 µM | > 100 µM |  | > 100 µM |  | > 100 µM | > 100 µM | > 100 µM | > 100 µM | > 100 µM | > 100 µM | > 100 µM | > 100 µM | > 100 µM | > 100 µM | > 100 µM |
| C=CN(C)S(C)(=O)=O | > 100 µM | > 100 µM | > 100 µM | > 100 µM |  | > 100 µM |  | > 100 µM | > 100 µM | > 100 µM | > 100 µM | > 100 µM | > 100 µM | > 100 µM | > 100 µM | > 100 µM | > 100 µM | > 100 µM |
| C/C(=C(\c1ccc(OCCN2CCCCCC2)cc1)c1ccc(OC(=O)Cc2ccccc2)cc1)c1ccc(Cl)cc1 | 6.41 µM | 6.35 µM | 10.5 µM | 8.17 µM |  | 5.2 µM |  | 4.45 µM | 2.96 µM | 3.24 µM | 3.2 µM | 3.5 µM | 2.64 µM | 2.2 µM | 4.58 µM | 2.03 µM | 2.94 µM | 7.32 µM |
